The values that follow come from ChEMBL document CHEMBL4627333, “Addition of ethylamines to the phenols of bithionol and synthetic retinoids does not elicit activity in gram-negative bacteria” (2020).

Converted amounts (≈) assume the structure as drawn.

The test system of assay [1] is Staphylococcus aureus. Description: Membrane disrupting activity in methicillin-resistant Staphylococcus aureus BF3 assessed as antibacterial activity by measuring inhibition of bacterial growth by CLSI-based antimicrobial dilution susceptibility method.
The subject of assay [2] is Pseudomonas aeruginosa. Description: Membrane disrupting activity in Pseudomonas aeruginosa PA14 assessed as antibacterial activity by measuring inhibition of bacterial growth by CLSI-based antimicrobial dilution susceptibility method.
The test system of assay [3] is Acinetobacter baumannii. Description: Membrane disrupting activity in Acinetobacter baumannii ATCC 17978 assessed as antibacterial activity by measuring inhibition of bacterial growth by CLSI-based antimicrobial dilution susceptibility method.
The test system of assay [4] is Staphylococcus aureus. Description: Membrane disrupting activity in methicillin-resistant Staphylococcus aureus BF1 assessed as antibacterial activity by measuring inhibition of bacterial growth by CLSI-based antimicrobial dilution susceptibility method.
Assay [5] has as its system Staphylococcus aureus. In words: Membrane disrupting activity in methicillin-resistant Staphylococcus aureus BF2 assessed as antibacterial activity by measuring inhibition of bacterial growth by CLSI-based antimicrobial dilution susceptibility method.
Assay [6] concerns Klebsiella pneumoniae. In words: Membrane disrupting activity in Klebsiella pneumoniae WGLW2 assessed as antibacterial activity by measuring inhibition of bacterial growth by CLSI-based antimicrobial dilution susceptibility method. To be noted: subsp. pneumoniae WGLW2.
For assay [7], the system named is Staphylococcus aureus. In words: Membrane disrupting activity in methicillin-resistant Staphylococcus aureus MW2 assessed as antibacterial activity by measuring inhibition of bacterial growth by CLSI-based antimicrobial dilution susceptibility method.

On to `Oc1c(Cl)cc(Cl)cc1Sc1cc(Cl)cc(Cl)c1O` [BITHIONOL], for which the MIC (usually the lowest concentration found to suppress growth) in assay [1] is 0.5 µg/mL (≈ 1.4 µM); in assay [2], 32 µg/mL (≈ 89.9 µM); in assay [3], 16 µg/mL (≈ 44.9 µM); in assay [4], 1 µg/mL (≈ 2.81 µM); in assay [5] it was 1 µg/mL (≈ 2.81 µM); in assay [6] it was 64 µg/mL (≈ 180 µM). Besides, in assay [7], the MIC is 1 µg/mL (≈ 2.81 µM).
On to `NCCOc1c(Cl)cc(Cl)cc1Sc1cc(Cl)cc(Cl)c1OCCN`, for which the MIC is 32 µg/mL (≈ 72.4 µM) in assay [1]; above 64 µg/mL in assay [2]; 64 µg/mL (≈ 145 µM) in assay [3]; 64 µg/mL (≈ 145 µM) in assay [4]; 64 µg/mL (≈ 145 µM) in assay [5]; 64 µg/mL (≈ 145 µM) in assay [6]. Further, in assay [7], the MIC was found to be 64 µg/mL (≈ 145 µM).
As for `NCCOc1ccc(-c2ccc3cc(CO)ccc3c2)cc1C12CC3CC(CC(C3)C1)C2`, the MIC in assay [1], in assay [2], in assay [3], in assay [4], in assay [5] and in assay [6] was above 64 µg/mL in each case. Further, the MIC in assay [7] is above 64 µg/mL.
As to `NCCOc1ccc(-c2ccc3cc(C(=O)O)ccc3c2)cc1C12CC3CC(CC(C3)C1)C2`, the MIC in assay [1], in assay [2], in assay [3], in assay [4], in assay [5] and in assay [6] was above 64 µg/mL throughout. In addition, the MIC in assay [7] is above 64 µg/mL.
Regarding `NCCOc1cc(CO)cc2ccc(-c3ccc(O)c(C45CC6CC(CC(C6)C4)C5)c3)cc12`, the MIC in assay [1] was 4 µg/mL (≈ 9.02 µM); in assay [2], above 64 µg/mL; in assay [3], above 64 µg/mL; in assay [4], 4 µg/mL (≈ 9.02 µM); in assay [5] it was 4 µg/mL (≈ 9.02 µM); in assay [6], above 64 µg/mL. Further, the minimal inhibitory concentration (MIC) in assay [7] was 4 µg/mL (≈ 9.02 µM).
On to `O=C(O)c1ccc2cc(-c3ccc(O)c(C45CC6CC(CC(C6)C4)C5)c3)ccc2c1` [O-DEMETHYLATED ADAPALENE], for which the minimal inhibitory concentration (MIC) in assay [1] was 1 µg/mL (≈ 2.51 µM); in assay [2], above 64 µg/mL; in assay [3], above 64 µg/mL; in assay [4], 2 µg/mL (≈ 5.02 µM); in assay [5], 2 µg/mL (≈ 5.02 µM); in assay [6], above 64 µg/mL. The MIC in assay [7] turned out to be 2 µg/mL (≈ 5.02 µM).
Turning to `NCCOc1cc(C(=O)O)cc2ccc(-c3ccc(O)c(C45CC6CC(CC(C6)C4)C5)c3)cc12`, the MIC in assay [1] is 4 µg/mL (≈ 8.74 µM); in assay [2], above 64 µg/mL; in assay [3] it was above 64 µg/mL; in assay [4], 8 µg/mL (≈ 17.5 µM); in assay [5], 16 µg/mL (≈ 35 µM); in assay [6], above 64 µg/mL. For the same molecule, the MIC in assay [7] is 8 µg/mL (≈ 17.5 µM).
